Experimental data reported in patent EP4818169A1, “CRYSTAL FORM OF COMPOUND SALT, PREPARATION METHOD THEREFOR AND USE THEREOF” (Apeiron Therapeutics (Hong Kong) Ltd., priority 2024, dated 2025).
Converted amounts (≈) assume the structure as drawn.

Tests used:
[1] = Hygroscopicity by dynamic vapor sorption (DVS) test; assay type: physicochemical; conditions: for hygroscopic weight gain: DVS, 25°C, from 0% RH to 80% RH; for crystalline form after the DVS test: XRPD before and after DVS test
Procedure: Moisture adsorption and desorption data were obtained using a dynamic vapor sorption device (Model TA Discovery SA). Samples were equilibrated at 25°C/0% RH for 300 min at the start of the experiment. Thereafter, humidity was varied from 0% to 95% RH in 5% RH increments, with nitrogen used to control and maintain the humidity. Equilibration during testing was defined as a mass change rate of < 0.02% per minute over 10 min, with a maximum equilibration time of 120 min.
From 0% RH to 80% RH, the hygroscopic weight gain was approximately 0.25%, indicating very low hygroscopicity.

[2] = Physicochemical stability on open storage (XRPD and HPLC); conditions: for Crystalline Form Change: merged cell for all storage conditions (40°C/75%RH, 60 °C, 25°C/60%RH, open) and times (2 and 4 weeks), XRPD
Procedure: The high performance liquid chromatography (HPLC) method for determining enantiomeric excess (%) used in the present application is shown in Table 5.
The purity testing method described in the present application is shown as follows.
For chemical stability studies, two open samples were prepared at each time point for each condition. Approximately 2 mg of maleate crystalline form A was transferred into a 20 mL glass vial, which was then covered with perforated aluminum foil to serve as an open sample. Samples were stored at 25°C/60% RH, 40°C/75% RH, and 60°C.
For physical stability studies, two open samples were prepared at each time point for each condition. Approximately 10 mg of maleate crystalline form A was transferred into a 20 mL glass vial, which was covered with perforated aluminum foil to serve as an open sample. Samples were stored at 25°C/60% RH, 40°C/75% RH, and 60°C.
All samples were stored for 4 weeks under the specified storage conditions. At predetermined time points (initial, 2 weeks, and 4 weeks), the corresponding samples were withdrawn and subject to chemical and physical evaluations, respectively. The physicochemical stability was assessed by XRPD and HPLC.
For chemical stability studies, two open samples were prepared at each time point for each condition. Approximately 2 mg of p-toluenesulfonate crystalline form A was transferred into a 20 mL glass vial, which was then covered with perforated aluminum foil to serve as an open sample. Samples were stored at 25°C/60% RH, 40°C/75% RH, and 60°C.
For physical stability studies, two open samples were prepared at each time point for each condition. Approximately 10 mg of p-toluenesulfonate crystalline form A was transferred into a 20 mL glass vial, which was covered with perforated aluminum foil to serve as an open sample. Samples were stored at 25°C/60% RH, 40°C/75% RH, and 60°C, respectively.

[3] = Mechanical stability: jet milling; assay type: physicochemical; conditions: feed and milling pressure 5.5 bar, 23 °C; XRPD
Procedure: The milled powder was then analyzed by XRPD and PLM, with results shown in Figure 27 and Figure 28, respectively.

[4] = Mechanical stability: pressurization method; assay type: physicochemical; conditions: 40 MPa held for 1 min, 5 mm die; XRPD
Procedure: Pressurization method: Maleate crystalline form A was weighed and transferred into a 5 mm-diameter die. The upper piston was then manually driven down into the die until a pressure of 40 MPa was reached and held for 1 min. Subsequently, the sample was removed and manually ground into a powder. Finally, the resulting powder was analyzed by XRPD.

[5] = Stability of the crystalline form in the formulation (tablet compression with microcrystalline cellulose); assay type: physicochemical; conditions: 50% (w/w) with microcrystalline cellulose PH102, tablets compressed at 4.2 kN and 9.2 kN; XRPD
Procedure: Equal amounts of maleate crystalline form A and microcrystalline cellulose PH102 were weighed to prepare a powder formulation comprising 50% (w/w) maleate crystalline form A, and the two components were mixed thoroughly.
A total of 200 mg of the uniformly mixed powder was transferred into an 8 mm-diameter die of a rotary tablet press. One tablet was compressed at 4.2 kN and another at 9.2 kN.
The resulting tablets were characterized for weight and hardness.

[6] = Dynamic solubility in different media (HPLC); assay type: physicochemical; conditions: for Crystalline Form Change / Solubility / pH: 24 h; for Crystalline Form Change: XRPD of precipitated solids; for Solubility: 37°C; for solubility at 24 h: 37 °C, thermodynamic from solid; for pH: pH of supernatant
Procedure: The preparation method of simulated gastrointestinal fluid involved in the present disclosure is: SGF: Transfer 2.02 g of sodium chloride into a 1000 mL beaker and add 950 mL of purified water to dissolve. Next, adjust the pH to 1.2 with 12 N hydrochloric acid. Transfer the solution to a 1000 mL volumetric flask and make up to 1000 mL with purified water.
FeSSIF: Transfer 4.04 g of sodium hydroxide, 8.65 g of acetic acid, and 11.87 g of sodium chloride into a 1000 mL volumetric flask, and dissolve with 950 mL of purified water. Titrate the obtained solution to pH 5.0 with 1M sodium hydroxide or 1M hydrochloric acid aqueous solution, and then make up to 1000 mL with purified water. Finally, weigh 11.20 g of SIF powder, add it to the above 1000 mL of pH 5.0 solution, and stir magnetically until clear.
A total of 10 mg of maleate crystalline form A was transferred into a dry, clean 4 mL glass vial. Then, 1 mL of simulated gastric fluid (SGF), fed state simulated intestinal fluid (FeSSIF), or purified water was added to the vial. All vials were placed on a shaker and agitated at 200 rpm at 37°C.
At the predetermined time point (24 h), 200 µL of the sample was withdrawn from the vial into a centrifuge tube and centrifuged at 90,000 rpm for 5 min. An appropriate amount of the supernatant was then diluted and analyzed by HPLC to determine the solubility.
The remaining 800 µL of suspension in the vial was centrifuged at 8000 rpm for 10 min. The pH of the resulting supernatant was measured, and the precipitated solids were vacuum-dried at 40°C for approximately 16 h. The dried precipitated solids were then characterized by X-ray powder diffraction.
A total of 10 mg of p-toluenesulfonate crystalline form A was transferred into a dry, clean 4 mL glass vial. Then, 1 mL of simulated gastric fluid (SGF), fed state simulated intestinal fluid (FeSSIF), or purified water was added to the vial. All vials were placed on a shaker and agitated at 200 rpm at 37°C.
At the predetermined time point (24 h), 200 µL of the sample was withdrawn from the vial into a centrifuge tube and centrifuged at 90,000 rpm for 5 min. An appropriate amount of the supernatant was then diluted and analyzed by high performance liquid chromatography to determine the solubility.

Structure (SMILES)	hygroscopic weight gain [1]	crystalline form after the DVS test [1]	Appearance ([2]; 25°C/60%RH (Open), 2 weeks)	Purity (%) ([2]; 25°C/60%RH (Open), 2 weeks)	ee (%) ([2]; 25°C/60%RH (Open), 2 weeks)	Appearance ([2]; 25°C/60%RH (Open), 4 weeks)	Purity (%) ([2]; 25°C/60%RH (Open), 4 weeks)	ee (%) ([2]; 25°C/60%RH (Open), 4 weeks)	Appearance ([2]; 40°C/75%RH (Open), 2 weeks)	Purity (%) ([2]; 40°C/75%RH (Open), 2 weeks)	ee (%) ([2]; 40°C/75%RH (Open), 2 weeks)	Appearance ([2]; 40°C/75%RH (Open), 4 weeks)	Purity (%) ([2]; 40°C/75%RH (Open), 4 weeks)	ee (%) ([2]; 40°C/75%RH (Open), 4 weeks)	Appearance ([2]; 60 °C (Open), 2 weeks)	Purity (%) ([2]; 60 °C (Open), 2 weeks)	ee (%) ([2]; 60 °C (Open), 2 weeks)	Appearance ([2]; 60 °C (Open), 4 weeks)	Purity (%) ([2]; 60 °C (Open), 4 weeks)	ee (%) ([2]; 60 °C (Open), 4 weeks)	also measured
CN(C(=O)c1ccc2nc(N)c3cncn3c2c1)[C@@H]1COc2cc(C(F)(F)F)ccc21 [Maleate crystalline form A, (S)-4-amino-N-methyl-N-(6-(trifluoromethyl)-2,3-dihydrobenzofuran-3-yl)imidazo[1,5-a]quinoxaline-8-carboxamide]	approximately 0.25%	did not change	Off-white powder	99.68%	100.00%	Off-white powder	99.67%	100.00%	Off-white powder	99.69%	100.00%	Off-white powder	99.67%	100.00%	Off-white powder	99.69%	100.00%	Off-white powder	99.67%	100.00%	Appearance ([2]; Initial): Off-white powder; Purity (%) ([2]; Initial): 99.66%; ee (%) ([2]; Initial): 100.00%; Crystalline Form Change [2]: None; crystalline form after jet milling [3]: retained its crystalline form; crystalline form after pressurization [4]: retained its crystalline form; crystallinity in the formulation [5]: remained relatively stable; Crystalline Form Change ([6]; FeSSIF): None; Solubility ([6]; H2O): 42.12 µg/mL; Crystalline Form Change ([6]; H2O): None; Crystalline Form Change ([6]; SGF): None; solubility at 24 h ([6]; fed state simulated intestinal fluid (FeSSIF), pH 5, fessif, FeSSIF): 258 µg/mL; pH ([6]; FeSSIF): 4.83; pH ([6]; H2O): 4.17; pH ([6]; SGF): 0.96; solubility at 24 h ([6]; simulated gastric fluid (SGF), pH 1.2, simulated gastric fluid, SGF): 443 µg/mL
CN(C(=O)c1ccc2nc(N)c3cncn3c2c1)[C@@H]1COc2cc(C(F)(F)F)ccc21 [p-toluenesulfonate crystalline form A, (S)-4-amino-N-methyl-N-(6-(trifluoromethyl)-2,3-dihydrobenzofuran-3-yl)imidazo[1,5-a]quinoxaline-8-carboxamide]	approximately 0.37%	did not change	Off-white powder	99.83%	100.00%	Off-white powder	99.84%	100.00%	Off-white powder	99.84%	100.00%	Off-white powder	99.80%	100.00%	Off-white powder	99.66%	100.00%	Off-white powder	99.50%	100.00%	Appearance ([2]; Initial): Off-white powder; Purity (%) ([2]; Initial): 99.81%; ee (%) ([2]; Initial): 100.00%; Crystalline Form Change [2]: None; Solubility ([6]; FeSSIF): 365.38 µg/mL (≈ 855 µM); Crystalline Form Change ([6]; FeSSIF): None; Solubility ([6]; H2O): 248.78 µg/mL (≈ 582 µM); Crystalline Form Change ([6]; H2O): None; Solubility ([6]; SGF): 293.98 µg/mL (≈ 688 µM); Crystalline Form Change ([6]; SGF): None; pH ([6]; FeSSIF): 4.78; pH ([6]; H2O): 3.19; pH ([6]; SGF): 0.98
